Tests used:
[1] = molecular target: T1, BACE1 (Homo sapiens, UniProt P56817); assay: In Vitro Enzymatic BACE FRET (Fluorescence Resonance Energy Transfer) Assay; type: biochemical
Method in brief: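 Buffer 0.05 M acetate pH 4.2 with 10% DMSO final and 100 uM genapol; reaction started with 50 nM FRET peptide substrate (fluorophore/quencher flanking BACE cleavage site), incubated one hour. Stopped with Tris buffer raising pH to neutrality, then fluorescence read.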

[2] = molecular target: T1, BACE1; assay: In Vitro BACE Cell-based Assay (HEK cell assay): Aβ40 in conditioned medium of cells stably expressing Amyloid Precursor Protein, sandwich ELISA
Method in brief: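 HEK cells stably expressing APP were treated 24 h with compound in 10-point dose response starting at 100 or 10 μM (0.1% DMSO). Secreted Aβ40 quantified by sandwich ELISA (pAb40 capture, biotinylated 6E10 detection, europium time-resolved fluorescence), with IC50 derived from percent inhibition versus concentration.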

[3] = test system: amyloid beta peptide (A-beta) in cerebrospinal fluid and brain; assay: In Vivo Inhibition of Beta-Secretase: reduction of A-beta levels in CSF and brain; settings: after 4 hrs, mouse or rat
From the text: Several animal models, including mouse, rat, dog, and monkey, may be used to screen for inhibition of beta-secretase activity in vivo following administration of a test compound sample. Animals used in this invention can be wild type, transgenic, or gene knockout animals. […] A separate group of animals receive 2% hydroxypropyl methylcellulose, 1% Tween80 alone, containing no test compound, and serve as a vehicle-control group. At the end of the test period, animals are sacrificed and brain tissues, plasma or cerebrospinal fluid are collected. […] Homogenates are centrifuged at 355,000 g, 4° C. for 30 minutes. CSF or brain supernatants are then analyzed for the presence of A-beta peptide by specific sandwich ELISA assays based on ECL (Electrochemiluminescence) technology. For example, rat Abeta40 is measured using biotinylated-4G8 (Signet) as a capture antibody and Fab40 (an in-house antibody specific to the C-terminal of Abeta40) as a detection antibody.

[4] = Table IV, class symbols, read-out: BACE1 FRET assay
[5] = Table IV, class symbols, read-out: HEK cell assay
[6] = HEK cells, read-out: HEK cell assay

T1 sequence (P56817 46-501, species assumed): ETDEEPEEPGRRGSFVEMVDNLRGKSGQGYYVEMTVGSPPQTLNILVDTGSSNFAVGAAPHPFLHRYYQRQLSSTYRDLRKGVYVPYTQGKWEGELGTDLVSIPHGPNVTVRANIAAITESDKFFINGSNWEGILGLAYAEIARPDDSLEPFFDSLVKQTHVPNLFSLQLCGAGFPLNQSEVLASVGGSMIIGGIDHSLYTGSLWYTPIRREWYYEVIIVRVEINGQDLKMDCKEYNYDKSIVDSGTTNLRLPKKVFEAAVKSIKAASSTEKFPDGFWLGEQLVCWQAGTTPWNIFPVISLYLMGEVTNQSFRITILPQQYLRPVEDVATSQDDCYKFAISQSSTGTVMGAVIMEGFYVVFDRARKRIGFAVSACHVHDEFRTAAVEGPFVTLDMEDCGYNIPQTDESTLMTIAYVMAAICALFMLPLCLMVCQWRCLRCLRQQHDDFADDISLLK

Structure (SMILES) | IC50 [1, 4] | IC50 [2, 5] | percent reduction in CSF A-beta levels ([3]; 30 mpk) | percent reduction in brain A-beta levels ([3]; 30 mpk) | percent reduction in CSF A-beta levels ([3]; 10 mpk) | percent reduction in brain A-beta levels ([3]; 10 mpk) | IC50 ([1]; read-out: BACE1 FRET assay) | further results
CC(C)(C#N)COc1ccc2c(c1)[C@@]1(COC(N)=N1)c1cc(-c3ccccc3)cnc1O2 [Example 817, 3-(((5S)-2′-amino-3-phenylspiro[chromeno[2,3-b]pyridine-5,4′-[1,3]oxazol]-7-yl)oxy)-2,2-dimethylpropanenitrile] | < 0.1 µM | < 0.1 µM | 44% | 25% | – | – | – | –
COC(C)(C)C#Cc1cnc2c(c1)[C@]1(COC(N)=N1)c1cc(-c3cnccn3)ccc1O2 [Example 586, (5S)-3-(3-methoxy-3-methyl-1-butyn-1-yl)-7-(2-pyrazinyl)spiro[chromeno[2,3-b]pyridine-5,4′-[1,3]oxazol]-2′-amine] | < 0.1 µM | < 0.1 µM | – | – | 32% | 11% | – | –
NC1=NC2(CO1)c1cc(-c3cccnc3)ccc1Oc1c(F)cc(C3=CCOCC3)cc12 (stereo in doubt) [Example 297, (R)-2′-(3,6-dihydro-2H-pyran-4-yl)-4′-fluoro-7′-(pyridin-3-yl)-5H-spiro[oxazole-4,9′-xanthen]-2-amine] | < 0.1 µM | < 0.1 µM | 69% | 54% | – | – | – | –
COC(C)(C)C#Cc1cc(F)c2c(c1)[C@]1(COC(N)=N1)c1cc(-c3cncnc3)ccc1O2 [Example 673, (4S)-4′-fluoro-2′-(3-methoxy-3-methyl-1-butyn-1-yl)-7′-(5-pyrimidinyl)spiro[1,3-oxazole-4,9′-xanthen]-2-amine] | – | – | 81% | 63% | – | – | < 0.1 µM | IC50 ([2]; read-out: HEK cell assay): < 0.1 µM
CC(C)(F)COc1cc(F)c2c(c1)[C@]1(COC(N)=N1)c1cc(-c3cncnc3)ccc1O2 [Example 293, (S)-4′-fluoro-2′-(2-fluoro-2-methylpropoxy)-7′-(pyrimidin-5-yl)-5H-spiro[oxazole-4,9′-xanthen]-2-amine] | – | – | – | – | 73% | 63% | < 0.1 µM | IC50 [2, 6]: < 0.1 µM
Cc1cnc(F)c(-c2ccc3c(c2)[C@@]2(COC(N)=N2)c2cc(C4=CCOCC4)ncc2O3)c1 [Example 286, (S)-3-(3,6-dihydro-2H-pyran-4-yl)-7-(2-fluoro-5-methylpyridin-3-yl)-5′H-spiro[chromeno[2,3-c]pyridine-5,4′-oxazol]-2′-amine] | – | – | – | – | 73% | 57% | < 0.1 µM | IC50 [2, 6]: < 0.1 µM
NC1=N[C@@]2(CO1)c1cc(-c3cc(Cl)ccc3F)ccc1Oc1ncc(C3=CCOCC3)cc12 [Example 296, (S)-7-(5-chloro-2-fluorophenyl)-3-(3,6-dihydro-2H-pyran-4-yl)-5′H-spiro[chromeno[2,3-b]pyridine-5,4′-oxazol]-2′-amine] | < 0.1 µM | < 0.1 µM | – | – | 61% | 40% | – | –
CC1(C)CN(c2cc3c(cn2)Oc2ccc(-c4cccnc4)cc2[C@@]32COC(N)=N2)CCO1 [Example 490, (5S)-3-(2,2-dimethyl-4-morpholinyl)-7-(3-pyridinyl)spiro[chromeno[2,3-c]pyridine-5,4′-[1,3]oxazol]-2′-amine] | – | – | – | – | 28% | 9% | < 0.1 µM | IC50 [2, 6]: < 0.1 µM
NC1=N[C@@]2(CO1)c1cc(-c3cccnc3F)ccc1Oc1ccc(N3CCOCC3)cc12 [Example 289, (S)-2′-(2-fluoropyridin-3-yl)-7′-morpholino-5H-spiro[oxazole-4,9′-xanthen]-2-amine 2,2,2-trifluoroacetate] | < 0.1 µM | < 0.1 µM | 69% | 52% | 49% | 23% | – | –
NC1=N[C@@]2(CO1)c1cc(-c3cccnc3)ccc1Oc1ccc(N3CC(F)(F)C3)cc12 [Example 540, (4S)-2′-(3,3-difluoro-1-azetidinyl)-7′-(3-pyridinyl)spiro[1,3-oxazole-4,9′-xanthen]-2-amine] | < 0.1 µM | < 0.1 µM | – | – | 40% | 7% | – | –
NC1=N[C@@]2(CO1)c1cc(-c3ccccc3)ccc1Oc1cnc(C3=CCOCC3)cc12 [Example 545, (5S)-3-(3,6-dihydro-2H-pyran-4-yl)-7-phenylspiro[chromeno[2,3-c]pyridine-5,4′-[1,3]oxazol]-2′-amine] | < 0.1 µM | < 0.1 µM | 73% | 58% | – | – | – | –
CC1(C)CN(c2ccc3c(c2)[C@]2(COC(N)=N2)c2cc(-c4cccnc4)ccc2O3)CCO1 [Example 663, (4S)-2′-(2,2-dimethyl-4-morpholinyl)-7′-(3-pyridinyl)spiro[1,3-oxazole-4,9′-xanthen]-2-amine] | < 0.1 µM | < 0.1 µM | 57% | 44% | – | – | – | –
NC1=N[C@]2(CO1)c1cc(C#CC3(O)CCC3)ccc1Oc1ccc(-c3cncnc3)cc12 [Example 956, 1-(((4R)-2-amino-7′-(5-pyrimidinyl)spiro[1,3-oxazole-4,9′-xanthen]-2′-yl)ethynyl)cyclobutanol] | – | – | 25% | 8% | – | – | < 0.1 µM | IC50 ([2]; read-out: HEK cell assay): < 0.1 µM
CC1(C)C=C(c2ccc3c(c2)[C@]2(COC(N)=N2)c2cc(-c4cncnc4)ccc2O3)CCO1 [Example 689, (4R)-2′-(6,6-dimethyl-3,6-dihydro-2H-pyran-4-yl)-7′-(5-pyrimidinyl)spiro[1,3-oxazole-4,9′-xanthen]-2-amine] | – | – | 69% | 41% | – | – | < 0.1 µM | IC50 ([2]; read-out: HEK cell assay): < 0.1 µM
C[C@@H]1CN(c2ccc3c(c2)[C@]2(COC(N)=N2)c2cc(-c4cccnc4)ccc2O3)C[C@H](C)O1 [Example 662, (4S)-2′-((2R,6S)-2,6-dimethyl-4-morpholinyl)-7′-(3-pyridinyl)spiro[1,3-oxazole-4,9′-xanthen]-2-amine] | < 0.1 µM | < 0.1 µM | 53% | 34% | – | – | – | –
CC(C)(C#N)COc1cc(F)c2c(c1)[C@]1(COC(N)=N1)c1cc(-c3cccnc3F)ccc1O2 [Example 287, (S)-3-(2-amino-5′-fluoro-2′-(2-fluoropyridin-3-yl)-5H-spiro[oxazole-4,9′-xanthene]-7′-yloxy)-2,2-dimethylpropanenitrile] | – | – | – | – | 48% | 32% | < 0.1 µM | IC50 [2, 6]: < 0.1 µM
CC(C)(C)C#Cc1cnc2c(c1)[C@]1(COC(N)=N1)c1cc(-c3cccnc3)ccc1O2 [Example 185b, (5S)-3-(3,3-dimethyl-1-butyn-1-yl)-7-(3-pyridinyl)spiro[chromeno[2,3-b]pyridine-5,4′-[1,3]oxazol]-2′-amine] | – | – | 72% | 58% | – | – | – | IC50 ([1]; Table III, IC50's in uM ranges, read-out: BACE1 FRET assay): < 0.1 µM; IC50 ([2]; Table III, IC50's in uM ranges, read-out: HEK cell assay): < 0.1 µM
CC(C)(C)COc1ccc2c(c1)[C@@]1(COC(N)=N1)c1cc(-c3ccncc3)cnc1O2 [Example 808, (5S)-7-(2,2-dimethylpropoxy)-3-(4-pyridinyl)spiro[chromeno[2,3-b]pyridine-5,4′-[1,3]oxazol]-2′-amine] | < 0.1 µM | < 0.1 µM | 55% | 43% | – | – | – | –
Cn1cc(-c2cc3c(cc2F)Oc2ccc(-c4cccnc4)cc2[C@@]32COC(N)=N2)cn1 [Example 531, (4S)-3′-fluoro-2′-(1-methyl-1H-pyrazol-4-yl)-7′-(3-pyridinyl)spiro[1,3-oxazole-4,9′-xanthen]-2-amine] | – | – | – | – | 45% | 25% | < 0.1 µM | IC50 [2, 6]: < 0.1 µM
NC1=N[C@@]2(CO1)c1cc(-c3cccnc3F)ccc1Oc1cnc(-c3cccnc3)cc12 [Example 517, (5S)-7-(2-fluoro-3-pyridinyl)-3-(3-pyridinyl)spiro[chromeno[2,3-c]pyridine-5,4′-[1,3]oxazol]-2′-amine] | – | – | – | – | 56% | 36% | – | IC50 ([1]; BACE1 FRET assay (uM)): < 0.1 µM; IC50 ([2]; HEK cell assay (uM), HEK cells): < 0.1 µM
NC1=N[C@]2(CO1)c1cc(OCC(F)(F)F)ccc1Oc1ccc(-c3cncnc3)cc12 [Example 58, (4S)-2′-(5-pyrimidinyl)-7′-(2,2,2-trifluoroethoxy)spiro[1,3-oxazole-4,9′-xanthen]-2-amine] | – | – | – | – | 45% | 29% | – | IC50 ([1]; Table II, read-out: BACE1 FRET assay): < 0.1 µM; IC50 ([2]; Table II, Aβ40, 24 h incubation, read-out: HEK cell assay): 0.1 to 1 µM
CC(C)(C)C#Cc1cnc2c(c1)[C@]1(COC(N)=N1)c1cc(-c3cncnc3)ccc1O2 [Example 299, (S)-3-(3,3-dimethylbut-1-ynyl)-7-(pyrimidin-5-yl)-5′H-spiro[chromeno[2,3-b]pyridine-5,4′-oxazol]-2′-amine] | – | – | 84% | 81% | – | – | < 0.1 µM | IC50 ([2]; read-out: HEK cell assay): < 0.1 µM

— patent US8426447B2, “Spiro-tricyclic ring compounds as beta-secretase modulators and methods of use” (Amgen Inc., priority 2008, dated 2013)
